Measured values from US11724980B2, “Quinones having high capacity retention for use as electrolytes in aqueous redox flow batteries” (President and Fellows of Harvard College, priority 2018, dated 2023).
≈ marks a conversion by molar mass, not a printed value. Read-outs that look alike come from different tables or passages of the source.

How the values were obtained:
[1] = Unbalanced compositionally-symmetric cell cycling; conditions: for temporal fade rate: 0.10 M, pH 12 (0.01 M KOH)
Procedure: As a direct probe of the effect of O-alkylation of anthraquinone on its chemical stability, 2,6-DBEAQ was cycled potentiostatically in a volumetrically unbalanced compositionally-symmetric cell configuration.
Potentiostatic symmetric cell cycling was performed according to a reported procedure^8 in order to assess the temporal chemical stability of DBEAQ, independent of any variations in apparent capacity as a result of changes to membrane resistance, and in a configuration where there is negligible water or reactant crossover due to the same DBEAQ concentration being used in both electrolytes. […] 5 mL of the resulting electrolyte was used as the capacity-limiting side of a volumetrically unbalanced compositionally-symmetric cell, while the remaining 10 mL was used as the non-capacity-limiting side, i.e., with twice the nominal capacity of the capacity-limiting side. […].
The cycling stability of the DPPEAQ electrolyte was also studied by a previously published symmetric cell method.^24 Although the oxidized form of DPPEAQ is readily soluble at pH 9, proton-coupled electron transfer raises the pH of the electrolyte when it is reduced. Such pH fluctuations can produce misleading results in symmetric cell testing unless the starting pH is above the cutoff point for proton-coupled electron transfer.

physchem [2] = type: physicochemical; conditions: for solubility: thermodynamic from solid
Procedure: Solubility limits of all DBEAQ isomers were measured in their oxidized forms by adding the potassium salt of DBEAQ (prepared by reacting DBEAQ with potassium hydroxide in water) until no further solid could be dissolved. After filtering the mixture through a PTFE 0.45 μm syringe filter, a saturated solution of DBEAQ in KOH was obtained. The saturated solution was then diluted by a known amount, and the concentration was evaluated by UV-Vis (Ocean Optics Flame-S Spectrometer Assembly) at 280 and 364 nm. […]
The solubility limit of DPPEAQ was measured in the oxidized form by adding the potassium salt of DPPEAQ (prepared by reacting DPPEAQ with potassium hydroxide in water) until no further solid could be dissolved. The mixture was adjusted to pH 9. After filtering the mixture through a PTFE 0.45 μm syringe filter, a saturated solution of DPPEAQ at pH 9 was obtained. The saturated solution was then diluted by a known amount while maintaining a pH of 9, and the concentration was evaluated by UV-Vis (Agilent Cary 60 spectrophotometer). The concentration was calculated according to a pre-calibrated absorbance-concentration curve of known concentrations of DPPEAQ at pH 9.

[3] = Rotating disk electrode study with Levich analysis; type: physicochemical; conditions: 5 mM in 1 M KOH, Levich plot
Procedure: Glassy carbon was used as the working electrode for all three-electrode CV tests. RDE experiments were conducted using a Pine Instruments Modulated Speed Rotator AFMSRCE equipped with a 5 mm diameter glassy carbon working electrode, a Ag/AgCl reference electrode (BASi, pre-soaked in 3 M NaCl solution), and a graphite counter electrode. The electrode was rotated at a specific speed while the voltage was linearly swept from −0.4 to −0.11 V vs. Ag/AgCl (FIG. 4A). […]. RDE experiments were conducted using a Pine Instruments Modulated Speed Rotator AFMSRCE equipped with a 5 mm diameter glassy carbon working electrode, a Ag/AgCl reference electrode (BASi, pre-soaked in a 3 M KCl solution), and a graphite counter electrode. […]

[4] = Cyclic voltammetry on glassy carbon electrode; type: physicochemical
Procedure: Glassy carbon was used as the working electrode for all three-electrode CV tests. RDE experiments were conducted using a Pine Instruments Modulated Speed Rotator AFMSRCE equipped with a 5 mm diameter glassy carbon working electrode, a Ag/AgCl reference electrode (BASi, pre-soaked in 3 M NaCl solution), and a graphite counter electrode. The electrode was rotated at a specific speed while the voltage was linearly swept from −0.4 to −0.11 V vs. Ag/AgCl (FIG. 4A). […].
A second CV experiment was performed in which 2,6-DBEAQ was dissolved in pH 14 KOH solution at a concentration of 2 mM. CV measurements were plotted in FIG. 4C. The standard equilibrium potential was determined to be −0.49 V vs. SHE. The separation between the peaks in the CV curves was 42 mV, indicating fairly rapid and reversible electrochemical reactions at the surface of the electrodes.

physchem [5] = type: physicochemical; conditions: 0.1 M
Procedure: FIGS. 24A-24D. Comparison of the stability of DPPEAQ with respect to alkyl chain cleavage to that of 2,6-DBEAQ at pH 14. ^1H NMR spectra (500 MHz, 10 mM NaCH3SO3 internal standard, δ 2.6 ppm) of (A) DPPEAQ at pH 14; (B) DPPEAQ at pH 14, treated for 5.5 days at 95° C. and 0.1 M concentration; (C) 2,6-DBEAQ at pH 14; (D) 2,6-DBEAQ at pH 14, treated for 5.5 days at 95° C. and 0.1 M concentration. […] The relative integrals and splitting of the peaks in the spectra of DPPEAQ after treatment are consistent with the products of (3-hydroxypropyl)phosphonate cleavage. Samples of DPPEAQ at 0.1 M concentration and pH 14 in both the oxidized and reduced form were stored in FEP bottles and heated in an oven at 65° C. for 2 weeks. The extent of decomposition was determined by ^1H NMR, with peak integrals measured relative to an internal standard of NaCH3SO3 prepared at 10 mM concentration in D2O.
By performing elevated temperature chemical stability studies, we have identified that the cleavage of γ-hydroxybutyrate is involved in the decomposition of the oxidized form of 2,6-DBEAQ (FIGS. 10A-10C and FIGS. 11A-11D), and we have characterized the time course of γ-hydroxybutyrate cleavage at pH 12 and pH 14 and at 0.1 M and 0.5 M concentration (FIG. 12 and FIGS. 13A-13C). […]; these observations are consistent with long redox flow battery lifetime at typical operating cell conditions.
We designed an analogue of 2,6-DBEAQ but with phosphonate-terminated functional groups, DPPEAQ, appearing to deliver both of these desired outcomes.
The differing relative stabilities of DPPEAQ and 2,6-DBEAQ at pH 12 (at 95° C. and 0.1 M concentration), in contrast to the similar extent of their observed decomposition at pH 14, may be due to a competition between multiple decomposition mechanisms that vary in a pH-dependent manner. The concentration of hydroxide ions at pH 14 is tenfold higher than the concentration of either molecule at 0.1 M, as opposed to tenfold lower at pH 12. In particular, we propose a hydroxide-mediated nucleophilic substitution reaction (SNAr or SN2) that dominates the decomposition of both molecules at pH 14. However, at a lower pH of 12, an intramolecular reaction with carboxylate acting as the nucleophile dominates in the decomposition of 2,6-DBEAQ, while no analogous intramolecular reaction of DPPEAQ at pH 12 can take place due to much weaker nucleophilicity of bulked phosphonate compared with carboxylate. The difference in the dominant mechanisms of 2,6-DBEAQ decomposition at pH 12 and 14 that we are proposing is also consistent with the observation that the initial rate of degradation is not 100-fold slower at pH 12 relative to pH 14. […] In addition, the operability at lower pH serves to decrease the corrosion of battery systems and enable the use of less expensive materials.

[6] = cited from earlier work
[7] = CV simulation as two one-electron reductions; type: physicochemical; conditions: same AQ:AQ2− ratio, from E1-E2 separations
Procedure: FIG. 6. Capacitance-corrected CV of 5 mM 2,6-DBEAQ in 1 M KOH (solid grey line). The dashed red line represents the simulated total current arising from two successive one-electron reductions with reduction potentials of −0.517 and −0.511 V vs. SHE, according to the procedure outlined in a previous publication.^1 Each simulated reduction has a rate constant ko=7×10^−3 cm/s and α=0.5.
A first CV experiment was performed in which 2,6-DBEAQ was dissolved in pH 14 KOH solution at a concentration of 5 mM. CV measurements were plotted in FIG. 5A and include results for the isomers of 2,6-DBEAQ.
Following our previous study on 2,6-DHAQ^17 and literature reports^1,18 on quinone electrochemistry in the absence of proton donors, we simulated the CV of 2,6-DBEAQ as representing two reversible electron transfer steps at two different potentials E1 and E2. The separation between simulated redox potentials for the first (E1) and second (E2) electron reductions for 2,6-DBEAQ is considerably narrower than the corresponding peak separation for 2,6-DHAQ^17 (6 mV vs. 60 mV).
The pH dependence of the proton-coupled electron transfer (POET) redox reaction for a generalized anthraquinone (AQ) is often visualized by the nine-membered square scheme (FIG. 7). The horizontal direction indicates electron transfer (ET), and the vertical direction indicates proton transfer (PT or protonation). Under strongly alkaline conditions, where the pH is higher than the second pKa (pKa2) of the reduced AQ (AQ^2−), no protonation of the semiquinone anion will take place, and reduction proceeds via two ET steps, from AQ to a semiquinone (AQ-^●) at E1, and from AQ-^● to AQ^2− at E2 which is typically <E1. Depending on the value of E1-E2, the mechanism of AQ reduction in alkaline conditions can either be a concerted one-step, two-electron process or two single-electron processes. […]

[8] = cited from earlier work; remark: listed apart in the source
[9] = previous study (ref 3/17); cited from earlier work
[10] = pH 14 KOH, literature (ref 3); cited from earlier work

Which results are given for `O=C(O)CCCOc1ccc2c(c1OCCCC(=O)O)C(=O)c1ccccc1C2=O` [1,2-DBEAQ]?
temporal fade rate [1]: greater than 0.1 %/day; Solubility (M) at pH 14 (pH 12) (physchem [2]): 0.9 M

With `O=C1c2ccc(OCCCP(=O)(O)O)cc2C(=O)c2ccc(OCCCP(=O)(O)O)cc21` [DPPEAQ, (((9,10-dioxo-9,10-dihydroanthracene-2,6-diyl)bis(oxy))bis(propane-3,1-diyl))bis(phosphonic acid)] as the compound, how does the capacity fade ([1]; 0.1 M, pH 13, cycled 6 days) read?
The capacity fade was 0.02 %/day.

What about the “diffusion coefficient for the oxidized form” value [3] of the same compound?
The value was 1.37×10^−6 cm^2/s.

What about the “pH above which the potential is pH-independent” value ([4]; Pourbaix diagram) of the same compound?
The value was about 12.4.

And the “redox potential (E1/2)” value ([4]; buffered pH 9)?
Its value is −0.39 V vs. SHE.

And the “redox potential (E1/2)” value ([4]; buffered pH 12)?
The value was −0.47 V vs. SHE.

What about the Pourbaix diagram slope ([4]; fit to data below pH 12) of the same compound?
Its Pourbaix diagram slope is −30 mV/pH.

What about the “redox potential (E1/2)” value ([4]; pH 9 unbuffered aqueous solution) of the same compound?
The value was −0.47 V vs. SHE.

And the “redox potential (E1/2)” value ([4]; pH 12 unbuffered aqueous solution)?
The value was −0.49 V vs. SHE.

And the solubility (physchem [2]; pH 9, aqueous buffer, pH 9, read-out: solubility of the oxidized form)?
Its solubility is 750 mM (≈ 363 mg/mL).

And the decomposition (physchem [5]; pH 9, 6 days at 95° C.)?
Its decomposition is “no significant decomposition”.

What about the decomposition (physchem [5]; pH 12, 6 days at 95° C.) of the same compound?
The decomposition was “no significant decomposition”.

What about the decomposition (physchem [5]; pH 14, 5.5 days at 95° C.) of the same compound?
Its decomposition is 45%.

What about the “chemical stability of the reduced form” value (physchem [5]; pH 14, 12 days at 65° C.) of the same compound?
Its value is “robust chemical stability”.

With `O=C1c2ccc(S(=O)(=O)O)cc2C(=O)c2ccc(S(=O)(=O)O)cc21` [AQDS, 9,10-anthraquinone-2,6-disulfonate] as the compound, how does the temporal fade rate ([6]; lowest previously reported quinone-based electrolyte (refs 10,11)) read?
The temporal fade rate was 0.1-0.2 %/day.

For `O=C1c2ccc(O)cc2C(=O)c2ccc(O)cc21` [2,6-DHAQ, 2,6-dihydroxyanthraquinone], which capacity fade rate ([6]; reported (refs 21,22)) is on record?
Its capacity fade rate is 5 %/day.

And the “temporal capacity fade rate” value ([1]; pH 14 (1 M KOH), 0.10 M (2,6-DBEAQ also 0.65 M))?
Its value is 5 %/day.

What about the “Keq_comp for semiquinone formation, times higher than for 2,6-DBEAQ” value [7] of the same compound?
The value was 2.83 times.

What about the solubility (physchem [2]; pH 12, aqueous buffer) of the same compound?
Its solubility is 100 mM (≈ 24 mg/mL).

And the solubility (physchem [2]; pH 14, aqueous buffer)?
Its solubility is 60 mM (≈ 14.4 mg/mL).

What about the reduction potential ([8]; comparison value for 2,6-DHAQ) of the same compound?
Its reduction potential is −680 mV vs. SHE.

What about the redox peak separation ([8]; literature (ref 3)) of the same compound?
The redox peak separation was about 90 mV.

And the E1-E2 separation [9]?
The E1-E2 separation was 60 mV.

What about the room temperature solubility [10] of the same compound?
Its room temperature solubility is 600 mM.

Which temporal fade rate [1] does the source give for `O=C(O)CCCOc1cccc2c1C(=O)c1c(OCCCC(=O)O)cccc1C2=O` [1,8-DBEAQ] here?
The temporal fade rate was over 10 %/day.

And the “Solubility (M) at pH 14 (pH 12)” value (physchem [2])?
Its value is 0.75 M.
